From EP1939191A1, “Furan derivatives, method of synthesis and uses thereof” (Neuropharma S.A., priority 2006, dated 2008)

Target: Recombinant human glycogen synthase kinase 3 beta (Homo sapiens, UniProt P49841)
Test: GSK-3 beta inhibition assay (33P-ATP, GS-2 peptide substrate, phosphocellulose filter counting)
Assay type: biochemical
Details: result in percentage of enzyme activity (lower = more inhibition); for activity at 25 µM: test compound at 25µM; for activity at 50 µM: test compound at 50µM
Description: The GSK-3 beta activity of the compounds of formula (I) according to the present invention was determined by incubation of a mixture of recombinant human GSK-3 enzyme, a phosphate source and GSK-3 substrate in the presence and in the absence of the corresponding test compound, and by measuring the GSK-3 activity of this mixture. The compounds where tested at final concentrations of 25 and 50 µM.
Recombinant human glycogen synthase kinase 3 beta was assayed in MOPS 8 mM pH 7.3, EDTA 0.2 mM, MgCl2 10 mM and sodium orthovanadate 0.25 mM in the presence of 62.5 µM of Phospho-Glycogen Synthase Peptide-2 (GS-2), 0.5 µCi gamma-^33P-ATP and unlabelled ATP at a final concentration of 12.5 µM. The final assay volume was 20 µl. After incubation for 30 minutes at 30 °C, 15 µl aliquots were spotted onto P81 phosphocellulose papers. Filters were washed four times for at least 10 minutes each and counted with 1.5 ml of scintillation cocktail in a scintillation counter.
The compounds of formula (I) of the present invention where submitted to the above indicated assays, in order to determine both their GSK-3 inhibition activity and BACE activity inhibition. The results are indicated in Table I, in percentage of the respective enzyme activity.

Chain of Recombinant human glycogen synthase kinase 3 beta (P49841 whole entry): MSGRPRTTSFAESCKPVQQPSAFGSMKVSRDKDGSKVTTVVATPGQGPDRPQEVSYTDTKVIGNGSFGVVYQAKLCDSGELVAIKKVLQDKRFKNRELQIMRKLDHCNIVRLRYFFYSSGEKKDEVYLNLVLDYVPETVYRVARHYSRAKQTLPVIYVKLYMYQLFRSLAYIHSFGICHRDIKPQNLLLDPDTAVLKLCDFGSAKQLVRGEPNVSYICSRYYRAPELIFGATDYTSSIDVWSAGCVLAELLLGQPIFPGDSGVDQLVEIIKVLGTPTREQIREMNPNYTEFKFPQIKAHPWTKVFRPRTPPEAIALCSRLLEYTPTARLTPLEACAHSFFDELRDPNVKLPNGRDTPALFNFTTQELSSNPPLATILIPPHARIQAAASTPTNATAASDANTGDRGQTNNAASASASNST

For `CC(=CC=CC(C)CCC=C(C)COC(=O)C(C)(C)C)CCCc1ccoc1` (stereo not shown) [2,2-Dimethyl-propionic acid 13-furan-3-yl-2,6,10-trimethyl-trideca-2,7,9-trienyl ester], which activity at 25 µM is on record?
Its activity at 25 µM is 45%.

And the activity at 50 µM?
Its activity at 50 µM is 27%.

How did the activity at 50 µM turn out when `CC(C)(C)[Si](OCC(O)c1ccco1)(c1ccccc1)c1ccccc1` (stereo not shown) [2-(tert-Butyl-diphenyl-silanyloxy)-1-furan-2-yl-ethanol] was run?
Its activity at 50 µM is 48.6%.

Which results are given for `OCC=Cc1ccoc1` [3-Furan-3-yl-prop-2-en-1-ol]?
activity at 25 µM: 61.1%; activity at 50 µM: 55.6%

How did the activity at 25 µM turn out when `CCOC(=O)C=C(C)CCCc1ccoc1` [6-Furan-3-yl-3-methyl-hex-2-enoic acid ethyl ester] was run?
Its activity at 25 µM is 83.7%.

And the activity at 50 µM?
Its activity at 50 µM is 67.4%.

Which activity at 25 µM does the source give for `CC(=CCCC(C)C=CC=C(C)CCCc1ccoc1)CO` (stereo not shown) [13-Furan-3-yl-2,6,10-trimethyl-trideca-2,7,9-trien-1-ol] here?
The activity at 25 µM was 83.7%.

What about the activity at 50 µM of the same compound?
The activity at 50 µM was 61.2%.

`CC(C)(C)[Si](OCCc1ccco1)(c1ccccc1)c1ccccc1` [tert-Butyl-(2-furan-2-yl-ethoxy)-diphenyl-silane] was tested. Which activity at 50 µM did it give?
The activity at 50 µM was 47.6%.

For `CC(C)(C)[Si](OCCCc1ccco1)(c1ccccc1)c1ccccc1` [tert-Butyl-(3-furan-2-yl-propoxy)-diphenyl-silane], which activity at 50 µM is on record?
The activity at 50 µM was 33.5%.

With `CC(C)(C)[Si](OCCCCCc1ccco1)(c1ccccc1)c1ccccc1` [tert-Butyl-(5-furan-2-yl-pentyloxy)-diphenyl-silane] as the compound, how does the activity at 50 µM read?
Its activity at 50 µM is 16.1%.

`CC(C)(C)[Si](OCCCCCCc1ccco1)(c1ccccc1)c1ccccc1` [tert-Butyl-(6-furan-2-yl-hexyloxy)-diphenyl-silane] was tested. Which activity at 50 µM did it give?
The activity at 50 µM was 5.08%.

With `CC(=CC=CC(C)CCCO[Si](c1ccccc1)(c1ccccc1)C(C)(C)C)CCCc1ccoc1` (stereo not shown) [tert-Butyl-(11-furan-3-yl-4,8-dimethyl-undeca-5,7-dienyloxy)-diphenyl-silane] as the compound, how does the activity at 25 µM read?
The activity at 25 µM was 29%.

What about the activity at 50 µM of the same compound?
The activity at 50 µM was 14%.

`CC(C)(C)[Si](OCCCSCc1ccco1)(c1ccccc1)c1ccccc1` [tert-Butyl-[3-(furan-2-ylmethylsulfanyl)-propoxy]-diphenyl-silane] was tested. Which activity at 50 µM did it give?
Its activity at 50 µM is 17.4%.
